A short description of data set [1]: In-vitro antioxidant activity (DPPH inhibition). In kind it is biochemical. Conditions: at 50 μg/mL, n ≥ 3. Here is the method: The prepared formulations' and AA's abilities to neutralise free radicals were determined in vitro and compared with standard ascorbic acid. In this method, free radical DPPH (2,2-diphenyl-1-picrylhydrazyl) was selected as described by Jamuna S. et al. 1.5 mL of 0.1mM free radial DPPH was treated with 3.5mL of 10 to 50 μg/mL concentrated methanolic solution of AA, CAE, optimised CLCAE, and CLAA. The absorbance of all the samples was measured at 518 nm through ELISA plate reader (version AM-2100, USA). The percentage of DPPH inhibition was measured through the formula. %Inhibition of DPPH=Absorptioncontrol−Absorptionsample/Absorptioncontrol×100

For data set [2] the following is noted: rat p.o; cited from earlier work.
The conditions of data set [3]: cited from earlier work.
A short description of data set [4]: In-vitro drug release, Franz diffusion cell with dialysis membrane. In kind it is physicochemical. Particulars: in around 10 hours. How it is done:
The % drug release from CLCAE and CLAA were measured through Franz diffusion cell using sigma dialysis membrane and the release rate was compared with AA and CAE. 1 mL sample (100 mg/mL) was kept on one side, while the other part of the membrane was filled with the acidic buffer pH 1.2 (200 mL) dissolution media for two hours. It was then replaced with phosphate buffer pH 7.2 (2–24 hours) with 0.25% w/v sodium lauryl sulphate as two separate media to simulate the stomach and intestinal conditions. The media were sustained at the temperature of 37°C on a magnetic stirrer. A 5 mL sample was withdrawn with the specific intervals and the condition of the sink was kept constant by refilling the same volume of media. Samples were analysed and compared using RP-HPLC at 210 nm. To assess the drug release strategy from the optimised CLAA, the data were fitted to various in vitro kinetic release models like Korsmeyer-Peppas, Higuchi, Zero and First Order models. ^, [36]

Data set [5] can be described thus: Ex vivo drug permeation, non-everted gut sac. Conditions: throughout 8 hours, non-everted rat intestinal sac. Type of data set: in vitro ADME, rats. How it is done: The drug intestinal permeation studies of both the optimised formulations were determined using non-everted gut sac procedure. ^, [40] The rats were sacrificed and small intestine was treated with oxygenated saline. The intestine was split into […] sacs that were 8 cm long and loaded with optimised CLCAE and CLAA (~100 mg AA). The thread was used to bind the sac's ends and located in a conical flask filled with ringer’s solution of pH 9 (10 ml). 37°C temperature was kept constant in a water bath shaker at 75 rpm with 5% CO 2 aeration. Every 20 min, for a maximum of 8 h, the samples were removed and substituted with the fresh media. RP-HPLC was used to analyse the screened sample.

A short description of data set [6]: Oral bioavailability study, AA in rat serum. Type of data set: in vivo, wistar rats. Here is the method:
The sum of drug availability after oral intake of AA, CLCAE, and CLAA was performed on three groups of 150-200g wistar rats (n=6). Prior to the procedure, the animals underwent an overnight fast with unlimited access to water. Group I was treated with a single dose of AA (100 mg/kg,p.o.) whereas group II, and III animals received single dose of optimised CLCAE and CLAA (~100 mg/k.g AA, p.o.), respectively. After the dosing, the animals were partially anesthetised using […], from the retro-orbital plexus 1 mL of blood samples were collected in centrifuge tubes at a predetermined time of up to 8 h. To isolate the contents, the serum sample was spun up at 3000 rpm for 10 min. The AA was quantified by RP-HPLC.
Initially, the mixture of 1 mL serum and 5 mL methanol were taken in a volumetric flask at room temperature. The sample was properly mixed before being heated for 30 min at 55°C. After that, a 10 mL flask was made up with methanol and centrifugation for 30 min at 5000 rpm (Remi Elektrotechnik Ltd. India). 20 μL of filtered supernatant was taken for analysis.
Depends on plasma concentration-time curve parameters, the C max and T max of CLCAE and CLAA were analysed. The pharmacokinetic parameters were successfully interpreted through PK/PD computer software version 4.1, USA, which includes measurement drug plasma concentration from zero to last measured sample (AUC 0 -t) and from zero to infinity (AUC 0-∞) measurement of drug elimination half-life (K 1/2el) and elimination rate constant (K el) clearance (Cl) and volume of distribution (V d). The relative bioavailability (F) of both the formulations was determined using the following formula. F=Total amount of drug absorbed from formulation(Amaxformulation)/Total amount of drug absorbed from pureAAAmaxpureAA×100 F=VdXKelXAUC0−∞formulation/VdXKelXAUC0−∞pureAA×100

Where [7] appears, read: Wistar, single oral dose ~100 mg/kg AA.

Consider `O=C1O[C@H]([C@@H](O)CO)C(O)=C1O` [ascorbic acid, reference compound], for which the “Percentage of inhibition of DPPH” value in data set [1] stood at 90.75 ± 1.45%.

On to `ClCCl` [dichloromethane], for which the LD50 in data set [2] is 1200 mg/kg.

On to `C[C@H]1[C@H](C)CC[C@]2(C(=O)O)CC[C@]3(C)C(=CC[C@@H]4[C@@]5(C)C[C@@H](O)[C@H](O)[C@@](C)(CO)[C@@H]5CC[C@]43C)[C@H]12` [AA, Asiatic acid], for which the Solubility in water result in data set [3] was “insoluble in water”. Further, the BCS class result in data set [3] (poor aqueous solubility and permeability) is on record as “BCS IV”. Further, the “In vitro drug release” value in data set [4] is given as 65.34%. For the same compound, in data set [5], the “Amount of drug permeated (ex vivo)” value is given as 30.90%. Moreover, the Tmax in data set [6] (Wistar, 100 mg/kg, single oral dose, read-out: Time of maximum serum concentration) was 4 h. In data set [6] (setting [7]), this compound came in with an AUC(0-t) of 40500 ± 1160 ng·h/mL and a Cmax of 3430 ± 120 ng/mL. For the same compound, the half-life in data set [6] (Wistar, single oral dose ~100 mg/kg AA, read-out: Elimination half-life (t1/2el) (converted)) was 1.97 ± 0.1 h. Moreover, the k el in data set [6] (Wistar, single oral dose ~100 mg/kg AA, read-out: Elimination rate constant (Kel) (converted)) is 0.000142 s⁻¹. The compound further yielded a Maximum serum concentration in data set [6] (single oral dose) of 3.43 ± 0.12 µg/mL. Also, in data set [6] (single oral dose ~100 mg/kg AA), the “Clearance (Cl)” value amounted to 0.55 ± 0.002 L h ^−1 and the “Volume of distribution (Vd)” value was determined as 1.62 ± 0.26 L. Further, in data set [1], the “Percentage of inhibition of DPPH” value stood at 65.4 ±1.2%.

(Values after article PMC9887206, “Cationic biopolymer decorated Asiatic Acid and Centella asiatica extract incorporated liposomes for treating early-stage Alzheimer’s disease: An In-vitro and In-vivo investigation” (F1000Research, 2022).)
